The structures appear in SMILES notation.

Consider three compounds from US12479847B2 (DANA-FARBER CANCER INSTITUTE, INC., priority 2019, dated 2025).

What all share (assay): KINOMEscan (ScanMAX) kinase profiling
What all share (assay type): binding

The target of assay [1] is T1, panel of 468 kinases (Homo sapiens, UniProt P00533, G719S).
T1 construct: purchased KINOMEscan (ScanMAX) service
The following applies: EGFR(G719S); 1 μM; read-out: % control.

Assay [2] addresses T2, panel of 468 kinases (Homo sapiens, UniProt O60285).
T2 construct: purchased KINOMEscan (ScanMAX) service
T2 sequence (O60285 1-661): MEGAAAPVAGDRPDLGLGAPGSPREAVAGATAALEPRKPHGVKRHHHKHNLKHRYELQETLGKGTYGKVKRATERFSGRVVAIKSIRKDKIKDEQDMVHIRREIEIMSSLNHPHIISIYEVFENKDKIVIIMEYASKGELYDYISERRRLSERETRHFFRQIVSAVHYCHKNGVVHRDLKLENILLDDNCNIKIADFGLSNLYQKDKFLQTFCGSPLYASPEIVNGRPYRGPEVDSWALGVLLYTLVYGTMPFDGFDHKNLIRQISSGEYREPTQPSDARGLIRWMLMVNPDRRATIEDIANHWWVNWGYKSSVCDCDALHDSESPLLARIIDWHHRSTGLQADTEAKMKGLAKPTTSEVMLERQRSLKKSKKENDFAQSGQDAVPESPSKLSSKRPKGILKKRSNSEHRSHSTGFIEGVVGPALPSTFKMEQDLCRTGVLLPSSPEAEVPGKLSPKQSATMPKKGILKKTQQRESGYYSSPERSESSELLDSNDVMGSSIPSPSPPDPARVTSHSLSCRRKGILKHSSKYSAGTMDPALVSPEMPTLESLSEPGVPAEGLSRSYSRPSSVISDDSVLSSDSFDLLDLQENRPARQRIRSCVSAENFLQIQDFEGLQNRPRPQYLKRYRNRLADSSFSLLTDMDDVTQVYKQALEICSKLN
As to conditions: ARKS; 1 μM; read-out: % control.

The target of assay [3] is T3, panel of 468 kinases (Homo sapiens, UniProt Q8N5S9).
T3 construct: purchased KINOMEscan (ScanMAX) service
The following applies: CAMKK1; 1 μM; read-out: % control.

The target of assay [4] is T4, panel of 468 kinases (Homo sapiens, UniProt Q9H3Y6).
T4 construct: purchased KINOMEscan (ScanMAX) service
The following applies: SRMS; 1 μM; read-out: % control.

In assay [5] the target is T5, panel of 468 kinases (Homo sapiens, UniProt P0C264).
T5 construct: purchased KINOMEscan (ScanMAX) service
T5 sequence (P0C264 1-359): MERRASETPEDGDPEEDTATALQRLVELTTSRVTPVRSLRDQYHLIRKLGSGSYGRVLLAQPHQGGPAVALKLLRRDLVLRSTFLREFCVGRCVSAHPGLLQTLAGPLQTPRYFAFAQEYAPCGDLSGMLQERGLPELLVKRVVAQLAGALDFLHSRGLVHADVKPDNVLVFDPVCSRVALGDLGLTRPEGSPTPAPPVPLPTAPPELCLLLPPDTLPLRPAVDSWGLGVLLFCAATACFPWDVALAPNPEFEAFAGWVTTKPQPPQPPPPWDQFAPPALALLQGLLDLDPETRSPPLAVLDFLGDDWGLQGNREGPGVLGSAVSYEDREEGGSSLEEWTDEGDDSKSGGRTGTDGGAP
The following applies: SgK110; 1 μM; read-out: % control.

The target in assay [6] is T6, panel of 468 kinases (Homo sapiens, UniProt Q9NYL2).
T6 construct: purchased KINOMEscan (ScanMAX) service
As to conditions: ZAK; 1 μM; read-out: % control.

For assay [7], the target named is T7, panel of 468 kinases (Homo sapiens, UniProt Q8NFD2).
T7 construct: purchased KINOMEscan (ScanMAX) service
T7 sequence (Q8NFD2 1-765): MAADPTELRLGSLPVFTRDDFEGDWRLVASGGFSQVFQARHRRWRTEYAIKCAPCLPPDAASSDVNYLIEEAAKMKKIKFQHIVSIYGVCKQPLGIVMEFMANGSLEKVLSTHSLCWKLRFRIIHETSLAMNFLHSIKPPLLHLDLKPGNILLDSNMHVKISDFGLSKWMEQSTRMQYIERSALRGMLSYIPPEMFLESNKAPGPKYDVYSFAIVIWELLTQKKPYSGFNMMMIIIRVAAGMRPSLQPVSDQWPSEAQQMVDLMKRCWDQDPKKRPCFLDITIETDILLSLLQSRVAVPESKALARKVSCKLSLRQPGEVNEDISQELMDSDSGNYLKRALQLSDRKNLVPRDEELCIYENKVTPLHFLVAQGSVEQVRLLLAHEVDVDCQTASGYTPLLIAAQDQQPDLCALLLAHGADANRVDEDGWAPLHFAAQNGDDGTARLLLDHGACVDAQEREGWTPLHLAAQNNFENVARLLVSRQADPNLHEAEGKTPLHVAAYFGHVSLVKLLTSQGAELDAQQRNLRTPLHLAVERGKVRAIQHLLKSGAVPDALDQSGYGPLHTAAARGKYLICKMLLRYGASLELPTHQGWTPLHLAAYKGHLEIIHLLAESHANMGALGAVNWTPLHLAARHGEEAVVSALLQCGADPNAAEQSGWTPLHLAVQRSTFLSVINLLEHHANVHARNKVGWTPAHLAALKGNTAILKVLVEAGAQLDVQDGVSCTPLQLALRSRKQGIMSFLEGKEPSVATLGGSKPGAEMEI
The following applies: ANKK1; 1 μM; read-out: % control.

T1 sequence (P00533 25-1210 G719S): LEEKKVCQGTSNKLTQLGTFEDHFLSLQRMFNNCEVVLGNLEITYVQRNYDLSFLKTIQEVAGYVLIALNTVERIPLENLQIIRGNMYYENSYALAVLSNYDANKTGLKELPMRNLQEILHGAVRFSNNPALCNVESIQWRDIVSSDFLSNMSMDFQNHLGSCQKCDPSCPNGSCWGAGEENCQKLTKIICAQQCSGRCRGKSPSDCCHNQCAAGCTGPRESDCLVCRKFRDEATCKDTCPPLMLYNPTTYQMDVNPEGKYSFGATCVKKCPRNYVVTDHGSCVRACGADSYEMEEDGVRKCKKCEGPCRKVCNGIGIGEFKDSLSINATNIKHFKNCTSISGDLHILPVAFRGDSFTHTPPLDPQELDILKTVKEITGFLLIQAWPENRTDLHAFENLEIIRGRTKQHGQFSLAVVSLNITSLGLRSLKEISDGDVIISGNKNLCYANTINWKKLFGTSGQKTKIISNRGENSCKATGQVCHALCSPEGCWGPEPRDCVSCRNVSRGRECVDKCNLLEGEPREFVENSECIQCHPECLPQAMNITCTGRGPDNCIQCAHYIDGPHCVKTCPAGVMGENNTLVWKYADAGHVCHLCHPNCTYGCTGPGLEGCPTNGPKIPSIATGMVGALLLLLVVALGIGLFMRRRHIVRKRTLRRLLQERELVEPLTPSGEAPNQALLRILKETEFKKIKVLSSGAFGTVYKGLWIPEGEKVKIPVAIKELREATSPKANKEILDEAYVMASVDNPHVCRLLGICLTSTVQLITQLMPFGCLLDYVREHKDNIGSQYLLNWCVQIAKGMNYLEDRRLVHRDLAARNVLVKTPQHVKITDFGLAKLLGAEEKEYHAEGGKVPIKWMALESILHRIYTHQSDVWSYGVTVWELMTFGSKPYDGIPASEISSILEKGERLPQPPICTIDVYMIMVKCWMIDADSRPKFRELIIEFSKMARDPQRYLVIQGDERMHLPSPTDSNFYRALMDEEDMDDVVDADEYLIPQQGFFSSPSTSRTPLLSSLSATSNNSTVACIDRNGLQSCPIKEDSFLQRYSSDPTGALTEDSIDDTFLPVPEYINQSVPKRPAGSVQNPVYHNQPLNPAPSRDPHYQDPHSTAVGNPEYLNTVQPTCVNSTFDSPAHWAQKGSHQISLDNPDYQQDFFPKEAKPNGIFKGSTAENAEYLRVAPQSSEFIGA
T3 sequence (Q8N5S9 whole entry): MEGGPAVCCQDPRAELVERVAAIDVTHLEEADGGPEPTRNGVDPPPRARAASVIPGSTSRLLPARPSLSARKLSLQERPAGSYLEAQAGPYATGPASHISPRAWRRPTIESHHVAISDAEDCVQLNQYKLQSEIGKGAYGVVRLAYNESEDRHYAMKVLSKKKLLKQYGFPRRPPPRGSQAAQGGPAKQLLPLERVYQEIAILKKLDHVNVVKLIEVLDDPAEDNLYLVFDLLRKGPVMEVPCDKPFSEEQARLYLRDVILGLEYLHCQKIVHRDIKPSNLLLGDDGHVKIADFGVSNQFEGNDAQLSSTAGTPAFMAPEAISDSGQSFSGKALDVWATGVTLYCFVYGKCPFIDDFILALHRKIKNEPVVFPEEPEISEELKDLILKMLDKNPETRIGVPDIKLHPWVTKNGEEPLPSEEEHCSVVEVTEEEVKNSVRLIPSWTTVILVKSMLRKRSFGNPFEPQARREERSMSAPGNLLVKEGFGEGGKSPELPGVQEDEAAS
T4 sequence (Q9H3Y6 whole entry): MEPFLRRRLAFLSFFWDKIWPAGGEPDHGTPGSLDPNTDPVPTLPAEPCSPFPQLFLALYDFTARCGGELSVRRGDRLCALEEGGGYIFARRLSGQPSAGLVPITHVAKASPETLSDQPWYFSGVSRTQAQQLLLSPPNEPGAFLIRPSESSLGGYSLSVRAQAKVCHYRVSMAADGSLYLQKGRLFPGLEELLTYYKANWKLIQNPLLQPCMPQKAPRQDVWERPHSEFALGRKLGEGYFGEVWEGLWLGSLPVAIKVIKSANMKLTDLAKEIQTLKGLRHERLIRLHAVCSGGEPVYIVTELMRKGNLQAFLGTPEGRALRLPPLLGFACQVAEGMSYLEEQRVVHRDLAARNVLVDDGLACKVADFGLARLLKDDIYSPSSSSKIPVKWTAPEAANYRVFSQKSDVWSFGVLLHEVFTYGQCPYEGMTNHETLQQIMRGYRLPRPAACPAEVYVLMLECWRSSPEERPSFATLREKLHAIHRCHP
T6 sequence (Q9NYL2 whole entry): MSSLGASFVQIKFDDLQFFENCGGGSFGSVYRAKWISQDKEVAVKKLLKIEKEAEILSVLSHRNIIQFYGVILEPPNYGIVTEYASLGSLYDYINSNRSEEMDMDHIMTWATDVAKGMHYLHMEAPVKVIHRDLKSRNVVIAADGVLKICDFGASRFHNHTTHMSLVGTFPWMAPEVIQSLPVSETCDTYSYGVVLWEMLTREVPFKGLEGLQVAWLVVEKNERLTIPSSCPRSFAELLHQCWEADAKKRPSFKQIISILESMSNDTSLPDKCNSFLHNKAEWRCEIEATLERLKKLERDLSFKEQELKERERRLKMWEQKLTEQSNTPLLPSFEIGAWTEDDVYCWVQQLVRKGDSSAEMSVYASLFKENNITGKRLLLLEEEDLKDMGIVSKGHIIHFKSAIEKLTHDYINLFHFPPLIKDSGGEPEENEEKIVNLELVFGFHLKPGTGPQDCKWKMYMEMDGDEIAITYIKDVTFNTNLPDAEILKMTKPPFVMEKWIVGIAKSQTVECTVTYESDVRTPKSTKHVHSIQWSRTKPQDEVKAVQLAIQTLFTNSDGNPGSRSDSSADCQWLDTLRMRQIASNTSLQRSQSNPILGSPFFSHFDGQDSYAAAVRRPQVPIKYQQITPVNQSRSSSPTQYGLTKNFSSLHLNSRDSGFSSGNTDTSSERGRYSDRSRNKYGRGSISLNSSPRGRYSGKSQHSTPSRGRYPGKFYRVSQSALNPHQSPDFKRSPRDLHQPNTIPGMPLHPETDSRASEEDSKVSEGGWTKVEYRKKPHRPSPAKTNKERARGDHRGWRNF

As for `CNc1nc(Nc2ccc(C(=O)N3CCC(N4CCOCC4)CC3)c3c2OCO3)nc2[nH]cc(Cl)c12` [Compound 75, (7-((5-chloro-4-(methylamino)-7H-pyrrolo[2,3-d]pyrimidin-2-yl)amino)benzo[d][1,3]dioxol-4-yl)(4-morpholinopiperidin-1-yl)methanone], the remaining binding at 1 µM on panel of 468 kinases [1] is 100%; at panel of 468 kinases [2], 23%; at panel of 468 kinases [3], 95%; at panel of 468 kinases [4], 70%; on panel of 468 kinases [5], 100%; at panel of 468 kinases [6] it was 100%. Besides, the remaining binding at 1 µM on panel of 468 kinases [7] amounted to 41%.
Take `CNc1nc(Nc2ccc(P3(=O)CCN(C4CCOCC4)CC3)cc2OC)nc2[nH]cc(Cl)c12` [Compound 77, 4-(4-((5-chloro-4-(methylamino)-7H-pyrrolo[2,3-d]pyrimidin-2-yl)amino)-3-methoxyphenyl)-1-(tetrahydro-2H-pyran-4-yl)-1,4-azaphosphinane 4-oxide]: the remaining binding at 1 µM at panel of 468 kinases [1] worked out at 100%; at panel of 468 kinases [2], 96%; on panel of 468 kinases [3] it was 83%; on panel of 468 kinases [4] it was 64%; on panel of 468 kinases [5], 98%; at panel of 468 kinases [6], 100%. For the same compound, at panel of 468 kinases [7], the remaining binding at 1 µM amounted to 65%.
With `CNc1nc(Nc2ccc(S(=O)(=O)N3CCC(N4CCOCC4)CC3)cc2OC)nc2[nH]cc(Cl)c12` [Compound 12, 5-chloro-N2-(2-methoxy-4-((4-morpholinopiperidin-1-yl)sulfonyl)phenyl)-N4-methyl-7H-pyrrolo[2,3-d]pyrimidine-2,4-diamine], the remaining binding at 1 µM at panel of 468 kinases [1] was determined as 99%; at panel of 468 kinases [2], 100%; at panel of 468 kinases [3], 100%; on panel of 468 kinases [4], 66%; at panel of 468 kinases [5], 92%; at panel of 468 kinases [6], 100%. At panel of 468 kinases [7], the remaining binding at 1 µM was determined as 73%.
